Test results from patent publication US8685963B2, “Compounds that inhibit NFκB and BACE1 activity” (The Trustees of Columbia University in the city of New York, priority 2008, dated 2014).
“Also recorded” adds a separate entry of the source.

Assays:
[1] = biological target: T1, BACE1 (Homo sapiens, UniProt P56817); assay: cell-based BACE1 assay (sAPPβ modified ELISA) in SY5Y-BACEGFP-SEAPAPPwt cells; settings: for IC50: 8-point dose-response (30-0.01 μM)
T1 construct: GFP; expressed in transfected cells; host or cells: SY5Y cells (SY5Y-BACEGFP-SEAPAPPwt), stably transfected
T1 sequence (P56817 46-501): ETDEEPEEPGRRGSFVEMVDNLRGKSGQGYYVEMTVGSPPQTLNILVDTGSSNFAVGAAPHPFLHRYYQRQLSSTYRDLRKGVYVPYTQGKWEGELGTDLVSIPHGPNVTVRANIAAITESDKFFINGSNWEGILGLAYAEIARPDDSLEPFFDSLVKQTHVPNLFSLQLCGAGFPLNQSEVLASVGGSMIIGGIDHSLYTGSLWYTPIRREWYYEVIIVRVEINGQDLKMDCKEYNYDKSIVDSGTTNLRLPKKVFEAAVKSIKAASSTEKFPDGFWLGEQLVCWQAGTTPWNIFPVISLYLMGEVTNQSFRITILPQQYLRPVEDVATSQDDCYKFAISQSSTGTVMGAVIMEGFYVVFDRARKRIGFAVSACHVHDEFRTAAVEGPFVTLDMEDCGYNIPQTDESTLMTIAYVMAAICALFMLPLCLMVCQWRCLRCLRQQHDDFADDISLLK
Method: FIG. 8 depicts a sAPPβ assay utilized to identify inhibitors of BACE1. The assay utilizes SY5Y cells stably overexpressing BACE-GFP and SEAP-APPwt. Cells are incubated with a candidate compound for 6 hours prior to harvesting media. BACE1-mediated cleavage of APP results in the release of sAPPβ into the media. α-secretase, a competing enzyme that is non-amyloidogenic, also cleaves APP to release […]. Using an sAPPβ-specific antibody (sβwt), SEAP-sAPPβ is specifically captured in a modified ELISA assay. Detection is achieved by addition of the fluorescent alkaline phosphatase substrate, 4-methylumbelliferyl phosphate (4-MUP).
FIG. 10A-B depicts SAR studies of N-(quinolin-8-yl)benzenesulfonamides. 28 full and partial hits, shown in (A) for compounds 1-26 and (B) for compounds 27 and 28, from the targeted screen of N-(quinolin-8-yl)benzenesulfonamides were characterized in SY5Y-BACEGFP-SEAPAPPwt cells using the cell-based BACE1 assay. All compounds were tested at 8 concentrations (30, 10, 3, 1, 0.3, 0.1, 0.03, and 0.01 μM), and data points were analyzed with Origin software and fitted using a logistic model for IC50 determination.
A cell-based modified ELISA assay for measuring sAPPβ, the secreted ectodomain of β-amyloid precursor protein (APP) following […] (BACE1) cleavage, was used to identify a class of compounds that interfered with the first step of sAPPβ generation. This assay has been described in International Application PCT/US2007/015938 (Published as International Publication No. WO 08/008,463), which is herein incorporated in its entirety for all purposes.
The SY5Y-BACEGFP-SEAPAPPwt cell based assay was developed to discover novel small molecule modulators of BACE1 activity. SY5Y cells were stably transfected with GFP-tagged BACE1 (BACE-GFP) and secreted alkaline phosphatase (SEAP)-tagged wildtype APP (SEAP-APPwt). BACE1 cleavage of SEAP-APPwt results in secretion into the media of SEAP-tagged sAPPβ, which is collected and specifically captured using an sAPPβ cleavage site-specific antibody (sβwt). After washing, the fluorescent alkaline phosphatase substrate 4-methylumbelliferyl phosphate (4-MUP) is used to detect the captured SEAP-sAPPβ (FIG. 8).
176 compounds were tested in the primary screen (FIG. 9). Briefly, each compound (10 mM stock in DMSO) was diluted 1:25 in DMSO and loaded onto 96-well plates to generate a 400 μM stock plate. 1 μl of each compound was then diluted 1:200 with cell culture media (0.5% DMSO concentration) in two separate 96-well plates for a final screening concentration of 2 μM. 150 μl of media containing compound was then transferred onto SY5Y-BACEGFP-SEAPAPPwt cells in 96-well format, and the BACE1 assay was performed as described previously. The primary screen was conducted in duplicate. A parallel screen was conducted at 10 μM concentration, also in duplicate. […] Percent inhibition of the fluorescence signal was calculated as 100×[DMSO control−compound]/DMSO control The majority of data points were clustered between −25% and 25% inhibition of sAPPβ fluorescence signal (FIG. 9A). The Z′ factors for all 4 96-well plates used in the primary screen were above 0.7 (data not shown). The threshold for hit selection was set at 3 standard deviations, or 59.76% inhibition, yielding 6 small molecule hits and a hit rate of 3.41% (FIG. 9B).
28 full and partial hits were characterized in 8-point dose-response experiments for IC50 determination in SY5Y-BACEGFP-SEAPAPPwt cells (FIG. 10).

[2] = test system: Aβ40; assay: Aβ40 / sAPPβ levels in Lenti-APPsw infected primary cortical neurons; format: cell-based, mouse
Method: FIG. 11A-B depicts Lentiviral-mediated transduction of APPsw in primary neurons. Primary cortical neurons were harvested from wild-type P0 mice and cultured according to established protocols. Lentivirus harboring human Swedish mutant APP (Lenti-APPsw) was packaged using ViraPower Lentiviral Packaging mix (Invitrogen) according to the manufacturer's protocol. DIV-14 neurons were incubated for 24 hours with primary culture media containing the indicated volume (in μl) of virus (LV-1 and LV-2 denote 2 separate batches of virus, 0 denotes no virus was used). After infection, neurons were incubated for 72 hours with primary culture media. Media was collected for Aβ40 ELISA (Bio Source), and cell lysates were probed with APPCT antibody to visualize transduced full-length APP. (A) Bar graph depicting results; (B) Assay results.
FIG. 13A-B depicts the effect of CU-264 on Aβ expressing primary cortical neuron cultures from wild-type mice transformed with lentivirus harboring APPsw. […] At 10 μm, CU-264 increased Aβ levels. (A) Bar graph depicting results; (B) Assay results.
The previously described hit was further analyzed in physiologically relevant systems, e.g. primary neurons and Alzheimer's model mice. Two complementary neuronal cell systems were employed to test the effects of candidate compounds on various aspects of APP processing: cultured mouse cortical neurons (postnatal day 0) infected with recombinant lentivirus carrying human APPsw (Lenti-APPsw; FIG. 11); and cultured cortical neurons prepared from Tg2576 mice (carrying human APPsw transgene under the control of the PrP promoter). Lenti-APPsw infected cortical neurons can be prepared in a relatively large scale, but suffer from variability in lentiviral infection efficiency, resulting in variable levels of APP expression. In contrast, cortical neurons derived from Tg2576 provide constant APP expression. However, neuronal yield is generally much lower, since only half the pups will contain the transgene when heterozygote crossbreeds were conducted. Therefore, Initial characterization experiments were performed using cortical neurons infected with Lenti-APPsw.
Lenti-APPsw infected primary cortical neurons were used for the initial round of physiological experiments. Primary cortical neurons were harvested from wild-type P0 pups using established protocols.
The Lenti-APPsw vector was co-transfected into HEK293 T cells with ViraPower packaging mix (Invitrogen) to generate the lentivirus. Lentiviral-mediated transduction of APPsw in primary neurons was performed by adding neuron primary culture media containing the lentiviral particles to wild-type DIV-14 primary neurons (FIG. 11). After 24 hours, neurons were incubated with media for 72 hours prior to collecting for Aβ40 measurement. Two batches of virus (LV-1 and LV-2) were tested, showing that there is batch-to-batch variation in the viral titer.
Using this experimental paradigm, CU-264 was tested at 10 and 2 μM concentrations to examine the sAPPβ- and Aβ-lowering activity of the compound. The protocol was modified slightly to allow for 24-hour compound treatment. DIV-14 wild-type primary neurons (FIG. 12) cultured on 6-well plates were incubated for 24 hours with primary culture media containing lentiviral particles. After infection, fresh media was mixed in a 1:1 ratio with conditioned media collected prior to lentiviral infection, and applied to the cells for 48 hours to allow for APP expression. […]

Structure (SMILES)	IC50 [1] [µM]	other results
O=S(=O)(Nc1cccc2cccnc12)c1cccc2ccccc12 [CU-131]	6.46	–
O=S(=O)(Nc1cc(Br)cc2cccnc12)c1cccc2ccccc12 [CU-138]	9.51	–
O=S(=O)(Nc1cccc2cccnc12)c1cccs1 [CU-150]	8.03	–
COc1ccc(S(=O)(=O)Nc2cccc3cccnc23)cc1 [CU-151]	5.92	–
O=[N+]([O-])c1ccc(S(=O)(=O)Nc2cccc3cccnc23)cc1 [CU-152]	4.63	–
O=[N+]([O-])c1ccccc1S(=O)(=O)Nc1cccc2cccnc12 [CU-153]	1.58	–
O=S(=O)(Nc1cccc2cccnc12)c1ccc2ccccc2c1 [CU-155]	2.2	–
O=S(=O)(Nc1cccc2cccnc12)c1cccc2cccnc12 [CU-156]	4.23	–
O=S(=O)(Nc1cc(Br)cc2cccnc12)c1ccccc1 [CU-166]	13.4	–
Cc1ccc(S(=O)(=O)Nc2cc(Br)cc3cccnc23)cc1 [CU-167]	1.09	–
O=S(=O)(Nc1cc(Br)cc2cccnc12)c1cccc2cccnc12 [CU-168]	17.2	–
Cc1ccc(S(=O)(=O)Nc2cccc3ccc(C)nc23)cc1 [CU-225]	3.79	–
Nc1ccccc1S(=O)(=O)Nc1cccc2cccnc12 [CU-242]	3.82	–
COc1ccc(S(=O)(=O)Nc2cccc3cccnc23)c([N+](=O)[O-])c1 [CU-261]	1.92	–
O=S1(=O)Nc2c(ccc3cccnc23)-c2cc(C(F)(F)F)ccc21 [CU-262]	0.82	potency for sAPPβ reduction (in words) [1]: sub-micromolar
Nc1cc(C(F)(F)F)ccc1S(=O)(=O)Nc1cccc2cccnc12 [CU-264]	0.53	Aβ40 levels in more physiological assay [2]: raising; sAPPβ levels in more physiological assay [2]: raising; Aβ40 levels in primary neurons ([2]; 2 μM CU-264, 24-hour treatment): does not reduce; Aβ levels in primary neurons ([2]; 10 μM, 24-hour treatment): increased; Aβ40 in primary neurons ([2]; tested at 10 and 2 μM, 24-hour treatment): did not reduce; potency for sAPPβ reduction (in words) [1]: most potent analog; also recorded: sub-micromolar; also recorded: most potent compound
O=[N+]([O-])c1cc(C(F)(F)F)ccc1S(=O)(=O)Nc1cccc2cccnc12 [CU-265]	2.95	–
COc1cc(NS(=O)(=O)c2ccccc2[N+](=O)[O-])c2ncccc2c1 [CU-268]	8.11	–
COc1ccc(S(=O)(=O)Nc2cccc3cccnc23)c(N)c1 [CU-271]	2.74	–
Cc1ccc2cccc(NS(=O)(=O)c3ccccc3[N+](=O)[O-])c2n1 [CU-273]	12.4	–
Cc1ccc2cccc(NS(=O)(=O)c3ccccc3N)c2n1 [CU-274]	11.1	–
COc1ccc(S(=O)(=O)Nc2cccc3ccc(C)nc23)c(N)c1 [CU-278]	11.5	–
Cc1ccc2cccc(NS(=O)(=O)c3ccc(C(F)(F)F)cc3[N+](=O)[O-])c2n1 [CU-280]	5.51	–
Cc1ccc2cccc(NS(=O)(=O)c3ccc(C(F)(F)F)cc3N)c2n1 [CU-281]	3.28	–
Cc1ccc2ccc3c(c2n1)NS(=O)(=O)c1ccc(C(F)(F)F)cc1-3 [CU-282]	1.11	–
COc1cc(NS(=O)(=O)c2ccc3ccccc3c2)c2ncccc2c1 [CU-294]	3.75	–
COc1cc(NS(=O)(=O)c2cccc3ccccc23)c2ncccc2c1 [CU-295]	3.63	–
